The results in this text go back to patent US8338403B2, “Drug for improving hyperglycemia” (Morinaga Milk Industry Co., Ltd., priority 2004, dated 2012).

Experiment [1] relates to db/db mice (type-II diabetes model mice). Put plainly: Test Example 1: hemoglobin A1c lowering action and hyperglycemic condition improving effect, 40-day oral administration. It is filed as in vivo. The settings on record: male db/db mice; for changes over time in random blood glucose levels / changes over time in fasting blood glucose levels / Hemoglobin A1c relative levels (%) 35th day from the administration: oral 1 mL of 1 μg/mL once a day; for changes over time in random blood glucose levels / changes over time in fasting blood glucose levels: 40 consecutive days; for changes over time in random blood glucose levels: FIG. 1; for changes over time in fasting blood glucose levels: after 15 hours of fasting, FIG. 2; for Hemoglobin A1c relative levels (%) 35th day from the administration: negative sample = 100. On the procedure:
This test was performed in order to evaluate the hemoglobin A1c lowering action and the hyperglycemic condition improving effect of the compounds of the present invention.
The compound 2 (4-methylcholest-7-en-3-ol), compound 3 (4-methylergost-7-en-3-ol) and compound 4 (4-methylstigmast-7-en-3-ol) produced in Preparation Example 1 mentioned above were used as test samples 1, 2 and 3, respectively.
Six-week old male db/db mice (purchased from Clea Japan, Inc.) were used as type-II diabetes model mice. These mice were divided into groups, each consisting of 7 animals. Each test sample was dissolved in DMSO, and the concentration was adjusted to 1 μg/mL with physiological saline. The final DMSO concentration was adjusted to 0.2%. […] The type-II diabetes model mice were orally administered with 1 mL of any of the test sample solutions once a day everyday with a sonde for 40 consecutive days. Further, β-sitosterol (Tama Biochemical Co., Ltd.) was administered to the model mice as a control sample 1. Fasting blood glucose levels and random blood glucose levels were measured over time by using Antisense II (Bayer-Sankyo Co., Ltd.). The fasting blood glucose levels were measured after 15 hours of fasting. Further, on the 35th day from the start of the administration, hemoglobin A1c levels were measured by using DCA 2000 (Bayer-Sankyo Co., Ltd.).

The test system is the same in experiment [2]. Briefly: Test Example 2: hemoglobin A1c lowering action compared with a clinical antidiabetic drug, 22-day oral administration. It is filed as in vivo. The settings on record: male db/db mice; for Hemoglobin A1c relative levels (%) 23th day from the administration: oral 1 mL once a day for 22 days (test samples 1 μg/mL; control sample 2 7.5 μg/mL pioglitazone hydrochloride), negative sample = 100; for decrease in hemoglobin A1c level in comparison with the negative sample: oral once a day, 23rd day. The method, then: Six-week old male db/db mice (purchased from Clea Japan, Inc.) were used as type-II diabetes model mice. These mice were divided into groups, each consisting of 7 animals. Each test sample was dissolved in DMSO, and the concentration was adjusted to 1 μg/mL with physiological saline. The final DMSO concentration was adjusted to 0.2%. […] Further, as a control sample 2, ACTOS® tablets (Takeda Pharmaceutical Co., Ltd.) were ground in a mortar and dissolved in physiological saline so that the concentration of pioglitazone hydrochloride as the active ingredient should become 7.5 μg/mL.

In the case of `CC(C)CCCC(C)C1CCC2C3=CCC4C(C)C(O)CCC4(C)C3CCC21C` (stereo not shown) [test sample 1, 4-methylcholest-7-en-3-ol], in experiment [1], the “changes over time in random blood glucose levels” value is recorded as “effect of suppressing the increase in blood glucose levels was clearly observed” and the “changes over time in fasting blood glucose levels” value was “effect of suppressing the increase in blood glucose levels was clearly observed”. In addition, the “Hemoglobin A1c relative levels (%) 35th day from the administration” value in experiment [1] (35th day) is recorded as 80.2 ± 19.2%. In experiment [2], the “Hemoglobin A1c relative levels (%) 23th day from the administration” value is listed as 89.9 ± 9.0% and the “decrease in hemoglobin A1c level in comparison with the negative sample” value (“decrease in hemoglobin A1c level” for short) was “about 11%”.

For `CCC(CCC(C)C1CCC2C3=CCC4C(C)C(O)CCC4(C)C3CCC21C)C(C)C` (stereo not shown) [test sample 3, 4-methylstigmast-7-en-3-ol], in experiment [1], the “changes over time in random blood glucose levels” value is “effect of suppressing the increase in blood glucose levels was clearly observed” and the “changes over time in fasting blood glucose levels” value was “effect of suppressing the increase in blood glucose levels was clearly observed”. For the same compound, the “Hemoglobin A1c relative levels (%) 35th day from the administration” value in experiment [1] (35th day) was 77.8 ± 12.2%. Moreover, in experiment [2], the “Hemoglobin A1c relative levels (%) 23th day from the administration” value is on record as 88.8 ± 9.0%.

Regarding `CC[C@H](CC[C@@H](C)[C@H]1CC[C@H]2[C@@H]3CC=C4C[C@@H](O)CC[C@]4(C)[C@H]3CC[C@]12C)C(C)C` [control sample 1, β-sitosterol, reference compound], in experiment [1], the “changes over time in random blood glucose levels” value is recorded as “rapid increases were observed” and the “changes over time in fasting blood glucose levels” value was “rapid increases were observed”. Moreover, the “Hemoglobin A1c relative levels (%) 35th day from the administration” value in experiment [1] (35th day) is on record as 94.8 ± 8.5%. Further, in experiment [1] (oral once a day, 35th day), the “decrease in hemoglobin A1c level” value was “about 0.5%” and the “hemoglobin A1c lowering effect (in words)” value is reported as “almost no hemoglobin A1c lowering effect was observed”.

For the compound `CC(C)C(C)CCC(C)C1CCC2C3=CCC4C(C)C(O)CCC4(C)C3CCC21C` (stereo not shown) [test sample 2, 4-methylergost-7-en-3-ol], in experiment [1], the “changes over time in random blood glucose levels” value is listed as “effect of suppressing the increase in blood glucose levels was clearly observed” and the “changes over time in fasting blood glucose levels” value was “effect of suppressing the increase in blood glucose levels was clearly observed”. Besides, in experiment [1] (35th day), the “Hemoglobin A1c relative levels (%) 35th day from the administration” value came out at 82.7 ± 21.0%. In addition, in experiment [2], the “Hemoglobin A1c relative levels (%) 23th day from the administration” value is recorded as 91.0 ± 6.7% and the “decrease in hemoglobin A1c level” value is given as “about 11%”.
